Measured values reported in US20230124862A1, “BISMUTH THIOL COMPOUNDS AND COMPOSITIONS AND METHODS OF TREATING MICROBIAL CO-INFECTIONS” (Microbion Corporation, priority 2020, published 2023).
Converted amounts (≈) assume the structure as drawn. Like-named read-outs stand apart in the source and are kept apart here.

Assays:
[1] = system: Anaerobes (Bacteroides fragilis, Clostridium difficile); experiment: Agar dilution MIC (Example 11); format: cell-based; settings: read-out: MIC
Method: The susceptibility of anaerobic bacteria was determined by agar dilution using Brucella Agar (BD/BBL; Lot No. 5237692) supplemented with 5 μg/mL hemin (Sigma, St. Louis, Mo.; Lot No. 108K1088), 1 μg/mL Vitamin K1 and 5% (v/v) laked sheep blood (Cleveland Scientific, Bath, Ohio; Lot No. 322799).
Agar Dilution MIC Testing (Anaerobic Bacteria and Gonococci): MIC values for anaerobic bacteria were determined using a reference agar dilution method as described by CLSI (6). Organisms were grown at 35° C. in the Bactron II Anaerobic Chamber (Shel Lab, Cornelius, Oreg.) for approximately 48 hr prior to the assay. Drug dilutions and drug-supplemented agar plates were prepared manually per CLSI (6). The plates were allowed to stand at room temperature for 1 hr to allow the agar surface to dry and pre-reduced for approximately 1 hr in the anaerobe chamber prior to inoculation. Each isolate was suspended to the equivalent of a 0.5 McFarland standard in Brucella broth using a turbidity meter (Dade Behring MicroScan, West Sacramento, Calif.). Each bacterial cell suspension was then diluted 1:10 in Brucella broth and transferred to wells in a stainless steel replicator block which was used to inoculate the test plates. The prongs on the replicator deliver approximately 1-2 μl of inoculum to an agar surface. The resulting inoculum spots contained approximately 1×10^5 CFU/spot. After the inoculum dried, the inoculated drug-supplemented agar plates and no drug growth control plates were incubated at 35° C. for 42-48 hr in the anaerobe chamber. The MIC was read per CLSI guidelines (6).

[2] = system: Anaerobes (Bacteroides fragilis, Clostridium difficile); settings: cited from earlier work
[3] = system: Gram-positive organisms (S. aureus, S. pneumoniae); settings: cited from earlier work
[4] = system: Gram-positive organisms (S. aureus, S. pneumoniae); experiment: Broth microdilution MIC with pulmonary surfactant (Survanta); format: cell-based, Staphylococcus aureus, Streptococcus pneumoniae
[5] = Bacteroides fragilis, ATCC25285, B. fragilis MMX 123 (ATCC 25285), QC
[6] = C. difficile MMX 4381 (ATCC 700057), QC, CC^1
[7] = C. difficile MMX 5680 (NCTC 13336), ribotype 027, CC^1 MET^R
[8] = C. difficile MMX 5681 (NCTC 13307), ribotype 012, CC^R
[9] = C. difficile MMX 8272, ribotype 255, CC^1
[10] = C. difficile MMX 8279, ribotype 005, CC^R
[11] = C. difficile MMX 8281, ribotype 010, CC^R
[12] = C. difficile MMX 4381 (ATCC 700057)

Compound: CCc1c(Cl)c(O)c(Cl)c(O)c1C(=O)O[C@H]1[C@H](O)[C@H](OC)[C@H](OC/C2=C\C=C\C[C@H](O)/C(C)=C/[C@H](CC)[C@@H](O[C@@H]3OC(C)(C)[C@@H](OC(=O)C(C)C)[C@H](O)[C@@H]3O)/C(C)=C/C(C)=C/C[C@@H]([C@@H](C)O)OC2=O)O[C@@H]1C [Fidaxomicin]
- MIC [1, 5]: > 64 µg/mL
- MIC [1, 6]: 0.25 µg/mL (≈ 0.236 µM)
- MIC [1, 7]: 4 µg/mL (≈ 3.78 µM)
- MIC [1, 8]: 0.5 µg/mL (≈ 0.473 µM)
- MIC [1, 9]: 0.5 µg/mL (≈ 0.473 µM)
- MIC [1, 10]: 0.5 µg/mL (≈ 0.473 µM)
- MIC [1, 11]: 0.5 µg/mL (≈ 0.473 µM)
- CLSI QC range of MIC [2, 12]: (0.06-0.25) μg/mL

Compound: Cc1ncc([N+](=O)[O-])n1CCO [Metronidazole]
- MIC [1, 5]: 0.5 µg/mL (≈ 2.92 µM)
- MIC [1, 6]: 0.5 µg/mL (≈ 2.92 µM)
- MIC [1, 7]: > 64 µg/mL
- MIC [1, 8]: 0.5 µg/mL (≈ 2.92 µM)
- MIC [1, 9]: 0.5 µg/mL (≈ 2.92 µM)
- MIC [1, 10]: 0.5 µg/mL (≈ 2.92 µM)
- MIC [1, 11]: 8 µg/mL (≈ 46.7 µM)
- CLSI QC range of MIC ([2]; B. fragilis MMX 123 (ATCC 25285)): (0.25-1) μg/mL
- CLSI QC range of MIC [2, 12]: (0.12-0.5) μg/mL

Compound: CCCCCCCCCC(=O)N[C@@H](Cc1c[nH]c2ccccc12)C(=O)N[C@H](CC(N)=O)C(=O)N[C@@H](CC(=O)O)C(=O)N[C@@H]1C(=O)NCC(=O)N[C@@H](CCCN)C(=O)N[C@@H](CC(=O)O)C(=O)N[C@H](C)C(=O)N[C@@H](CC(=O)O)C(=O)NCC(=O)N[C@H](CO)C(=O)N[C@@H]([C@H](C)CC(=O)O)C(=O)N[C@@H](CC(=O)c2ccccc2N)C(=O)O[C@@H]1C [daptomycin]
- CLSI acceptable MIC QC range ([3]; S. aureus ATCC 29213): (0.12-1) μg/mL
- CLSI acceptable MIC QC range ([3]; S. pneumoniae ATCC 49619): (0.06-0.5) μg/mL
- effect of Survanta addition on MIC values ([4]; S. aureus and S. pneumoniae): increased
- MIC ([4]; S. pneumoniae ATCC 49619, 0 percent Survanta): 0.06 µg/mL (≈ 0.037 µM)
- MIC ([4]; S. pneumoniae ATCC 49619, 1 percent Survanta): 0.25 µg/mL (≈ 0.154 µM)
- MIC ([4]; S. pneumoniae ATCC 49619, 2.5 percent Survanta): 1 µg/mL (≈ 0.617 µM)
- MIC ([4]; S. pneumoniae MMX 3162, 0 percent Survanta): 0.12 µg/mL (≈ 0.074 µM)
- MIC ([4]; S. pneumoniae MMX 3162, 1 percent Survanta): 0.25 µg/mL (≈ 0.154 µM)
- MIC ([4]; S. pneumoniae MMX 3162, 2.5 percent Survanta): 0.25 µg/mL (≈ 0.154 µM)
- MIC ([4]; Staphylococcus aureus, ATCC29213, S. aureus ATCC 29213, 0 percent Survanta): 0.5 µg/mL (≈ 0.309 µM)
- MIC ([4]; Staphylococcus aureus, ATCC29213, S. aureus ATCC 29213, 1 percent Survanta): 16 µg/mL (≈ 9.87 µM)
- MIC ([4]; Staphylococcus aureus, ATCC29213, S. aureus ATCC 29213, 2.5 percent Survanta): 32 µg/mL (≈ 19.7 µM)
- MIC ([4]; Staphylococcus aureus, ATCC29213, S. aureus ATCC 29213, 5 percent Survanta): > 32 µg/mL
- MIC ([4]; Staphylococcus aureus, ATCC29213, S. aureus ATCC 29213, 10 percent Survanta): > 32 µg/mL
- MIC ([4]; Staphylococcus aureus, ATCC43300, S. aureus ATCC 43300, 0 percent Survanta): 0.25 µg/mL (≈ 0.154 µM)
- MIC ([4]; Staphylococcus aureus, ATCC43300, S. aureus ATCC 43300, 1 percent Survanta): 8 µg/mL (≈ 4.94 µM)
- MIC ([4]; Staphylococcus aureus, ATCC43300, S. aureus ATCC 43300, 2.5 percent Survanta): 16 µg/mL (≈ 9.87 µM)
- MIC ([4]; Staphylococcus aureus, ATCC43300, S. aureus ATCC 43300, 5 percent Survanta): 16 µg/mL (≈ 9.87 µM)
- MIC ([4]; Staphylococcus aureus, ATCC43300, S. aureus ATCC 43300, 10 percent Survanta): > 32 µg/mL
